US20080207614A1, “QUINAZOLINE DERIVATIVES FOR THE TREATMENT AND PREVENTION OF DIABETES AND OBESITY” (SK CHEMICALS CO., LTD., priority 2004, published 2008)

Each compound was assayed on AMPK (assay: Measurement of AMPK activity by Western blot in C2C12 cells). Conditions: 10 μM for 50 minutes, no superscript: Western blot of serine-79 and threonine-172 phosphorylation.
Format: cell-based
Parameters: key to AMPK activity (degree of phosphorylation of serine-79 and threonine-172): fold increase in threonine-172 phosphorylation
Method: C2C12 cells were cultured and differentiated in the same manner as in Experimental Example 1. Treatment with the test materials was also performed in the same manner as in Experimental Example 1 (10 μM for 50 minutes). The culture medium was removed and the cells were washed for 2 times with PBS and protein extracts were obtained using a lysis buffer (50 mM tris-HCl, pH 7.4, 1% NP-40, 0.25% sodium deoxycholate, 150 mM NaCl, 1 mM EDTA, 1 mM PMSF, 1 mM sodium o-vanadate, 1 mM NaF, 1 μg/mL apronitin, 1 μg/mL leu-peptin, 1 μg/mL pepstatin). The AMPK activity was determined from Western blot analysis of the degree of phosphorylation of serine-79 […] acetyl CoA carboxylase and the degree of phosphorylation of threonine-172. The amount of ERK (extracellular signal regulated protein kinase) was confirmed by Western blot in order to quantify the proteins.
The result of Western blot analysis is given in Table 3 below, wherein “strong” means that the degree of phosphorylation of threonine-172 increased by 3 times or more, “mild” means that the degree of phosphorylation of threonine-172 increased by 1 to 3 times and “weak” means that the degree of phosphorylation of threonine-172 increased by less than 1 time.

Row | SMILES | AMPK activity (degree of phosphorylation of serine-79 and threonine-172)
1 | COc1ccc(CNc2nc(N3CCCCC3)nc3ccccc23)cc1 [Compound 284, (4-Methoxybenzyl)-(2-piperidino-1-ylquinazolino-4-yl)-amine] | 1.4
2 | COc1ccc(CNc2nc(N3CCN(C)CC3)nc3ccccc23)cc1 [Compound 286, (4-Methoxybenzyl)-[2-(4-methylpiperazino-1-yl)-quinazolino-4-yl]-amine] | 1.0
3 | COc1cccc(CNc2nc(N3CCCC3)nc3ccccc23)c1OC [Compound 287, (2,3-Dimethoxybenzyl)-(2-pyrrolidino-1-ylquinazolino-4-yl)-amine] | 1.2
4 | COc1cccc(CNc2nc(N3CCOCC3)nc3ccccc23)c1OC [Compound 289, (2,3-Dimethoxybenzyl)-(2-morpholino-4-ylquinazolino-4-yl)-amine] | 1.5
5 | COc1cccc(CNc2nc(N3CCN(C)CC3)nc3ccccc23)c1OC [Compound 290, (2,3-Dimethoxybenzyl)-[2-(4-methylpiperazino-1-yl)-quinazolino-4-yl]-amine] | 1.0
6 | COc1ccc(CNc2nc(N3CCN(C)CC3)nc3ccccc23)c(OC)c1 [Compound 294, (2,4-Dimethoxybenzyl)-[2-(4-methylpiperazino-1-yl)-quinazolino-4-yl]-amine] | 0.4
7 | COc1ccc(OC)c(CNc2nc(N3CCCC3)nc3ccccc23)c1 [Compound 295, (2,5-Dimethoxybenzyl)-(2-pyrrolidino-1-ylquinazolino-4-yl)-amine] | 0.2
8 | COc1ccc(OC)c(CNc2nc(N3CCOCC3)nc3ccccc23)c1 [Compound 297, (2,5-Dimethoxybenzyl)-(2-morpholino-4-ylquinazolino-4-yl)-amine] | 0.8
9 | COc1cc(CNc2nc(N3CCCC3)nc3ccccc23)cc(OC)c1OC [Compound 311, (2-Pyrrolidino-1-ylquinazolino-4-yl)-(3,4,5-trimethoxybenzyl)-amine] | 0.2
10 | COc1cc(CNc2nc(N3CCCCC3)nc3ccccc23)cc(OC)c1OC [Compound 312, (2-Piperidino-1-ylquinazolino-4-yl)-(3,4,5-trimethoxybenzyl)-amine] | 0.3
11 | COc1cc(CNc2nc(N3CCOCC3)nc3ccccc23)cc(OC)c1OC [Compound 313, (2-Morpholino-4-ylquinazolino-4-yl)-(3,4,5-trimethoxybenzyl)-amine] | 0.1
12 | COc1cc(CNc2nc(N3CCN(C)CC3)nc3ccccc23)cc(OC)c1OC [Compound 314, [2-(4-Methylpiperazino-1-yl)-quinazolino-4-yl]-(3,4,5-trimethoxybenzyl)-amine] | 0.2
13 | COc1cc(OC)c(CNc2nc(N3CCCC3)nc3ccccc23)c(OC)c1 [Compound 315, (2-Pyrrolidino-1-ylquinazolino-4-yl)-(2,4,6-trimethoxybenzyl)-amine] | 0.4
14 | COc1cc(OC)c(CNc2nc(N3CCCCC3)nc3ccccc23)c(OC)c1 [Compound 316, (2-Piperidino-1-ylquinazolino-4-yl)-(2,4,6-trimethoxybenzyl)-amine] | 1.2
15 | COc1cc(OC)c(CNc2nc(N3CCOCC3)nc3ccccc23)c(OC)c1 [Compound 317, (2-Morpholino-4-ylquinazolino-4-yl)-(2,4,6-trimethoxybenzyl)-amine] | 0.3
16 | COc1cc(OC)c(CNc2nc(N3CCN(C)CC3)nc3ccccc23)c(OC)c1 [Compound 318, [2-(4-Methylpiperazino-1-yl)-quinazolino-4-yl]-(2,4,6-trimethoxybenzyl)-amine] | 0.5
17 | CCOc1nc(NCc2ccc(OC)cc2OC)c2ccccc2n1 [Compound 319, (2,4-Dimethoxybenzyl)-(2-ethoxyquinazolino-4-yl)-amine] | 1.5
18 | CCOc1nc(NCc2ccc3c(c2)OCO3)c2ccccc2n1 [Compound 320, Benzo[1,3]dioxol-5-ylmethyl-(2-ethoxyquinazolino-4-yl)-amine] | 0.9
19 | COc1cccc(CNc2nc(-c3ccco3)nc3ccccc23)c1OC [Compound 342, (2,3-Dimethoxybenzyl)-(2-furano-2-ylquinazolino-4-yl)-amine] | 1.0

Row | SMILES | AMPK activity (degree of phosphorylation of serine-79 and threonine-172)
20 | COc1ccc(CNc2nc(-c3ccco3)nc3ccccc23)cc1OC [Compound 344, (3,4-Dimethoxybenzyl)-(2-furano-2-ylquinazolino-4-yl)-amine] | 0.4
21 | COc1ccc(CNc2nc(-c3ccco3)nc3ccccc23)c(OC)c1 [Compound 346, (2,4-Dimethoxybenzyl)-(2-furano-2-ylquinazolino-4-yl)-amine] | 0.8
22 | COc1ccc(OC)c(CNc2nc(-c3ccco3)nc3ccccc23)c1 [Compound 347, (2,5-Dimethoxybenzyl)-(2-furano-2-ylquinazolino-4-yl)-amine] | 1.2
23 | COc1cc(OC)c(CNc2nc(-c3ccco3)nc3ccccc23)c(OC)c1 [Compound 348, (2-Furano-2-ylquinazolino-4-yl)-(2,4,6-trimethoxybenzyl)-amine] | 1.6
24 | COc1ccccc1CNc1nc(-c2cccs2)nc2ccccc12 [Compound 349, (2-Methoxybenzyl)-(2-thiopenyl-2-ylquinazolino-4-yl)-amine] | 2.1
25 | COc1cccc(CNc2nc(-c3cccs3)nc3ccccc23)c1 [Compound 350, (3-Methoxybenzyl)-(2-thiopenyl-2-ylquinazolino-4-yl)-amine] | 0.6
26 | COc1ccc(CNc2nc(-c3cccs3)nc3ccccc23)cc1 [Compound 351, (4-Methoxybenzyl)-(2-thiopenyl-2-ylquinazolino-4-yl)-amine] | 0.7
27 | c1csc(-c2nc(NCc3ccc4c(c3)OCO4)c3ccccc3n2)c1 [Compound 352, Benzo[1,3]dioxol-5-ylmethyl-(2-thiopenyl-2-ylquinazolino-4-yl)-amine] | 0.5
28 | COc1cc(CNc2nc(-c3cccs3)nc3ccccc23)cc(OC)c1 [Compound 354, (3,5-Dimethoxybenzyl)-(2-thiopenyl-2-ylquinazolino-4-yl)-amine] | 0.6
29 | COc1cc(CNc2nc(-c3cccs3)nc3ccccc23)cc(OC)c1OC [Compound 356, (2-Thiopenyl-2-ylquinazolino-4-yl)-(3,4,5-trimethoxybenzyl)-amine] | 1.4
30 | COc1ccc(CNc2nc(-c3cccs3)nc3ccccc23)c(OC)c1 [Compound 357, (2,4-Dimethoxybenzyl)-(2-thiopenyl-2-ylquinazolino-4-yl)-amine] | 0.7
31 | COc1ccc(OC)c(CNc2nc(-c3cccs3)nc3ccccc23)c1 [Compound 358, (2,5-Dimethoxybenzyl)-(2-thiopenyl-2-ylquinazolino-4-yl)-amine] | 0.8
32 | COc1cc(OC)c(CNc2nc(-c3cccs3)nc3ccccc23)c(OC)c1 [Compound 359, (2-Thiopenyl-2-ylquinazolino-4-yl)-(2,4,6-trimethoxybenzyl)-amine] | 0.9
33 | COc1cc(CNc2nc(C(OC)c3ccccc3)nc3ccccc23)cc(OC)c1 (centres unmarked) [Compound 365, (3,5-Dimethoxybenzyl)-[2-(methoxyphenylmethyl)-quinazolino-4-yl]-amine] | 1.1
34 | COc1ccc(CNc2nc(C(OC)c3ccccc3)nc3ccccc23)cc1OC (centres unmarked) [Compound 366, (3,4-Dimethoxybenzyl)-[2-(methoxyphenylmethyl)-quinazolino-4-yl]-amine] | 1.6
35 | COc1cc(CNc2nc(C(OC)c3ccccc3)nc3ccccc23)cc(OC)c1OC (centres unmarked) [Compound 367, [2-(Methoxyphenylmethyl)-quinazolino-4-yl]-(3,4,5-trimethoxybenzyl)-amine] | 2.2
36 | c1ccc2c(NCc3ccc4c(c3)OCO4)nc(C3CC3)nc2c1 [Compound 385, Benzo[1,3]dioxol-5-ylmethyl-(2-cyclopropylquinazolino-4-yl)-amine] | 2.8
37 | COc1cccc(CNc2nc(C3CC3)nc3ccccc23)c1OC [Compound 386, (2-Cyclopropylquinazolino-4-yl)-(2,3-dimethoxybenzyl)-amine] | 1.3
38 | CCCc1nc(NCc2ccccc2OC)c2ccccc2n1 [Compound 393, (2-Methoxybenzyl)-(2-propylquinazolino-4-yl)-amine] | 1.0
